Laboratory results taken from patent publication US20260306525A1, “COMBINATION THERAPY GLUCOCORTICOIDS AND GINSENOSIDE” (FYTAGORAS B.V., priority 2023, published 2026).

Experiments:
pck1 = test: qPCR pck1 expression in zebrafish larvae; assay type: in vivo, zebrafish (Danio rerio); conditions: for pck1 expression, short-term treatment / pck1 expression, long-term treatment: 5 dpf, beclomethasone 10 μM, Rg1 50 μM or combination; for pck1 expression, long-term treatment: 5 days
Procedure: […] Groups of 15 larvae were collected in TRIzol reagent (ThermoFisher) and total RNA was isolated using miRNeasy mini kit (Qiagen, Hilden, Germany). For experiments in HeLa cells, cells were seeded in 6 well plates and after treatment, the cells were removed from the wells using TRIzol reagent and mRNA was isolated using miRNeasy mini kit (Qiagen) according to the manufacturer's instructions. The RNA samples were DNAse-treated utilizing the DNA-free™ DNA Removal Kit (ThermoFisher Scientific). The cDNA synthesis was performed using the iScript cDNA synthesis kit (Bio-Rad Laboratories, Hercules, CA, USA) using 1 μg of RNA per sample. For qPCR, 10 μM of forward primer and 10 μM of reverse primer, 12.5 μl of IQ SYBR Green Supermix (Bio-Rad Laboratories), and 2 μl of cDNA were added to the qPCR reaction mixture. […] The qPCR reactions were performed on a MyiQ-single-color real-time PCR detection system (Bio-Rad Laboratories), with initial denaturation for 3 min, 95° C., and 40 cycles of 15 s at 95.5° C., 15 s at 60° C., and 30 s at 72° C. Cycle threshold values (Ct values, i.e. the cycle numbers at which a threshold value of the fluorescence intensity was reached) were determined for each sample. The gene expression level for each sample was normalized using the expression of ppial (peptidylprolyl isomerase Ab (cyclophilin A)) for zebrafish samples, and 18S rRNA for human cells. The fold change per sample (compared to the respective control group) was calculated using the […]Ct method.
[…] Per sample, groups of 15 larvae were collected in TRIzol reagent (Thermo Fisher Scientific, Waltham, MA, USA), and total RNA was isolated using the miRNeasy mini kit (Qiagen, Hilden, Germany). For similar experiments in Hela cells, cells were seeded in 6 well plates, and after 6 h of chemical treatment, the cells were removed from the wells using TRIzol reagent, and total RNA was isolated using the miRNeasy mini kit according to the manufacturer's instructions. The RNA samples were DNAse-treated utilizing the DNA-free™ DNA Removal Kit (Thermo Fisher Scientific). The cDNA synthesis was performed using the iScript cDNA synthesis kit (Bio-Rad Laboratories, Hercules, CA, USA) using 1 μg of RNA per sample. For the PCR reactions, 10 μM of forward and 10 μM of reverse primer, 12.5 μl of iQ SYBR Green Supermix (Bio-Rad), and 2 μl of cDNA were added to the qPCR reaction mixture. […] The reactions were performed on a MyiQ-single-color real-time PCR detection system (Bio-Rad Laboratories) with initial denaturation for 3 min at 95° C. and 40 cycles of 15 s at 95.5° C., 15 s at 60° C., and 30 s at 72° C. Cycle threshold values (Ct values, i.e. the cycle numbers at which a threshold value of the fluorescence intensity was reached) were determined for each sample. The gene expression level for each sample was normalized using the expression of ppial (peptidylprolyl isomerase Ab (cyclophilin A)) for zebrafish samples, 18S rRNA for human cells. The fold change per sample (compared to the respective control group) was calculated using the ΔΔCt method.

neutrophils = test: zebrafish tail fin wounding assay, neutrophil migration to wounded site; assay type: in vivo, zebrafish (Danio rerio); conditions: for migration of neutrophils upon tail fin wounding: Example 2, PPT 50 μM, F1, Rh1, Rg1 100 μM, Bec positive control, 3 dpf; for reduction in neutrophil migration in presence of Gba2 inhibitor MZ31: MZ31 (10 μM) co-treatment; for migration of neutrophils towards the wounded site: 4 h after wounding
Procedure: Zebrafish (Danio rerio) were maintained and handled according to the guidelines from the Zebrafish Model Organism Database (http://zfin.org) and in compliance with the directives of the local animal welfare committee of Leiden University. Zebrafish were exposed to a 14 h light and 10 h dark cycle to maintain circadian rhythmicity. Fertilization was performed by natural spawning at the beginning of the light period. […] The following zebrafish lines were used in this study: the double transgenic line Tg(mpx:GFP^i114/mpeg1:mCherry^umsF001), in which neutrophils and macrophages are fluorescently labeled (green and red, respectively), and the Tg(9xGCRE-HSV.UI23:EGFP)^ia20 reporter line, in which the gene encoding enhanced green fluorescent protein (EGFP) is driven by a GRE-containing promoter.
For the tail fin wounding experiments, 20 larvae at 2 or 3 days post-fertilization (dpf) were utilized for each experimental group. For wounding, larvae were anesthetized in egg water containing 0.02% buffered aminobenzoic acid ethyl ester (tricaine; Sigma-Aldrich). Larvae were placed on Petri dishes coated with 2% agarose under a Leica M165C stereomicroscope (Leica Microsystems, Wetzlar, Germany), and the tails were partly amputated using a 1-mm sapphire blade (World Precision Instruments, Sarasota, FL, USA). For quantification of leukocyte migration, larvae were fixed overnight in 4% paraformaldehyde (PFA) at 4° C. The next day, fixed larvae were washed with Phosphate Buffered Saline (PBS) containing 0.1% Tween 20, and stored at 4° C. until imaging.
The macrophages were detected based on their red (mCherry) fluorescence, and neutrophils based on their green (EGFP) fluorescence. To quantify the number of macrophages and neutrophils recruited to the wounded area, the cells in a defined area of the tail were determined by blinded manual counting.
Zebrafish (Danio rerio) were maintained and handled according to the guidelines from the Zebrafish Model Organism Database (http://zfin.org) and in compliance with the directives of the local animal welfare committee of Leiden University. Zebrafish were exposed to a 14 h light and 10 h dark cycle to maintain circadian rhythmicity. Fertilization was performed by natural spawning at the beginning of the light period. […] The following zebrafish lines were used in this study: AB/TL wild type, the transgenic lines Tg(mpx:GFP^i114/mpeg1:mCherry^umsF001)[14, 15], and Tg(9xGCRE-HSV.UI23:EGFPia^20)[16], and the mutant lines grs357[20].
For the tail fin wounding experiments, 2- or 3-days post-fertilization (dpf) larvae were anesthetized in egg water containing 0.02% buffered aminobenzoic acid ethyl ester (tricaine; Sigma-Aldrich). Larvae were placed in Petri dishes coated with 2% agarose under a Leica M165C stereomicroscope (Leica Microsystems, Wetzlar, Germany), and the tails were partly amputated using a 1-mm sapphire blade (World Precision Instruments, Sarasota, FL, USA).
In experiments in which the leukocyte migration was used as a readout, larvae were subjected to treatment with chemicals as indicated, starting at 2 h before the amputation (pretreatment), and treatment was continued for 4 h after the tail fin amputation (20 larvae per group, unless indicated otherwise). In some experiments, a 24 h treatment with MZ31 (10 μM) was started at 2 dpf, and these treatments were continued during the pretreatment and treatment with the other chemicals. At 4 h after amputation, the larvae were fixed in 4% paraformaldehyde (PFA) overnight at 4° C. The next day, fixed larvae were washed with Phosphate Buffered Saline (PBS) containing 0.1% Tween 20 and stored at 4° C. until imaging. […] The macrophages were detected based on red (mCherry) fluorescence and neutrophils on their green (EGFP) fluorescence. To quantify the number of macrophages and neutrophils recruited to the wounded area, the cells in a defined area of the tail were determined by blinded manual counting. […]

[1] = 3 dpf, wounded larvae, 6 h, 10 μM beclomethasone, 50 μM Rg1 or combination

Row | Compound | pck1 expression (pck1; Example 2, 6 h treatment) | migration of neutrophils upon tail fin wounding (neutrophils) | reduction in neutrophil migration in presence of Gba2 inhibitor MZ31 (neutrophils) | pck1 expression (pck1; [1]) | pck1 expression, short-term treatment (pck1; 6 h) | pck1 expression, long-term treatment (pck1) | migration of neutrophils towards the wounded site (neutrophils; beclomethasone 20 μM and 40 μM) | migration of neutrophils towards the wounded site (neutrophils; beclomethasone lower than 10 μM) | migration of neutrophils towards the wounded site (neutrophils; Rg1 40 μM and lower)
1 | CC(C)=CCC[C@](C)(O)[C@H]1CC[C@]2(C)[C@@H]1[C@H](O)C[C@@H]1[C@@]3(C)CC[C@H](O)C(C)(C)[C@@H]3[C@@H](O)C[C@]12C [PPT, Protopanaxatriol] | did not increase the expression | inhibited the migration of neutrophils | did not affect the reduction in neutrophil migration |  |  |  |  |  | 
2 | C[C@H]1C[C@H]2[C@@H]3CCC4=CC(=O)C=C[C@]4(C)[C@@]3(Cl)[C@@H](O)C[C@]2(C)[C@@]1(O)C(=O)CO [beclomethasone, reference compound] |  | inhibited the migration of neutrophils |  | upregulated the expression of pck1 and fkbp5 | upregulated the expression | this upregulation of pck1 and nfkbiaa was significantly reduced after long-term treatment | did significantly reduce the neutrophil migration | did not affect the migration of neutrophils towards the wounded site | 
3 | CC(C)=CCC[C@](C)(O[C@@H]1O[C@H](CO)[C@@H](O)[C@H](O)[C@H]1O)[C@H]1CC[C@]2(C)[C@@H]1[C@H](O)C[C@@H]1[C@@]3(C)CC[C@H](O)C(C)(C)[C@@H]3[C@@H](O[C@@H]3O[C@H](CO)[C@@H](O)[C@H](O)[C@H]3O)C[C@]12C [Rg1, (3β,6α, 12β)-3,12-Dihydroxydammar-24-ene-6,20-diyl bis-β-D-glucopyranoside] | did not increase the expression | inhibited the migration of neutrophils | this inhibitor abolished the effect of the polyglycosylated ginsenoside Rg1 | did not affect the expression of these genes | did not affect the expression of the genes | did not affect the expression of the genes |  |  | did not alter the neutrophil migration
4 | CC(C)=CCC[C@](C)(O)[C@H]1CC[C@]2(C)[C@@H]1[C@H](O)C[C@@H]1[C@@]3(C)CC[C@H](O)C(C)(C)[C@@H]3[C@@H](O[C@@H]3O[C@H](CO)[C@@H](O)[C@H](O)[C@H]3O)C[C@]12C [Rh1] | did not increase the expression | inhibited the migration of neutrophils | did not affect the reduction in neutrophil migration |  |  |  |  |  | 
5 | CC(C)=CCC[C@](C)(O[C@@H]1O[C@H](CO)[C@@H](O)[C@H](O)[C@H]1O)[C@H]1CC[C@]2(C)[C@@H]1[C@H](O)C[C@@H]1[C@@]3(C)CC[C@H](O)C(C)(C)[C@@H]3[C@@H](O)C[C@]12C [F1] | did not increase the expression | inhibited the migration of neutrophils | did not affect the reduction in neutrophil migration |  |  |  |  |  | 
